Measured values taken from PubChem BioAssay AID248 (DTP/NCI, 2004).
Where “and” joins values, the source holds several entries; their conditions need not be identical. Identical values can stand only once. Inconclusive results and toxic doses are left out. Rule as the data show it: active = T/C of 150% or more; inactive = T/C below 125%.

System: L1210 leukemia ip in BDF1 mice, survival T/C
Test: NCI In Vivo Anticancer Drug Screen. Data for tumor model L1210 Leukemia (intraperitoneal) in B6D2F1 (BDF1) mice
Details: endpoint: mean survival time, higher = longer survival
Outline: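 Transplantable tumor model; survival measured in treated vs vehicle control mice. Value = treated/control.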

[1] = dose: 100.0 mg/kg/injection, schedule: Q01DX001 (ip), vehicle: carboxymethylcellulose (CMC)
[2] = dose: 200.0 mg/kg/injection, schedule: Q01DX001 (ip), vehicle: carboxymethylcellulose (CMC)
[3] = dose: 100.0 mg/kg/injection, schedule: Q01DX001 (ip), vehicle: saline
[4] = dose: 200.0 mg/kg/injection, schedule: Q01DX001 (ip), vehicle: saline
[5] = dose: 400.0 mg/kg/injection, schedule: Q01DX001 (ip), vehicle: saline
[6] = dose: 100.0 mg/kg/injection, schedule: Q01DX001 (ip), vehicle: Klucel (hydroxypropylcellulose) (HPC)
[7] = dose: 100.0 mg/kg/injection, schedule: Q04DX003 (ip), vehicle: Klucel (hydroxypropylcellulose) (HPC)
[8] = dose: 200.0 mg/kg/injection, schedule: Q01DX001 (ip), vehicle: Klucel (hydroxypropylcellulose) (HPC)
[9] = dose: 200.0 mg/kg/injection, schedule: Q04DX003 (ip), vehicle: Klucel (hydroxypropylcellulose) (HPC)
[10] = dose: 400.0 mg/kg/injection, schedule: Q01DX001 (ip), vehicle: Klucel (hydroxypropylcellulose) (HPC)
[11] = dose: 400.0 mg/kg/injection, schedule: Q04DX003 (ip), vehicle: Klucel (hydroxypropylcellulose) (HPC)
[12] = dose: 100.0 mg/kg/injection, schedule: Q04DX003 (ip), vehicle: saline with Tween-80
[13] = dose: 200.0 mg/kg/injection, schedule: Q04DX003 (ip), vehicle: saline with Tween-80
[14] = dose: 400.0 mg/kg/injection, schedule: Q04DX003 (ip), vehicle: saline with Tween-80
[15] = dose: 100.0 mg/kg/injection, schedule: Q01DX009 (ip), vehicle: Klucel (hydroxypropylcellulose) (HPC)
[16] = dose: 200.0 mg/kg/injection, schedule: Q01DX009 (ip), vehicle: Klucel (hydroxypropylcellulose) (HPC)
[17] = dose: 400.0 mg/kg/injection, schedule: Q01DX009 (ip), vehicle: Klucel (hydroxypropylcellulose) (HPC)
[18] = dose: 100.0 mg/kg/injection, schedule: Q04DX002 (ip), vehicle: Klucel (hydroxypropylcellulose) (HPC)
[19] = dose: 200.0 mg/kg/injection, schedule: Q04DX002 (ip), vehicle: Klucel (hydroxypropylcellulose) (HPC)
[20] = dose: 400.0 mg/kg/injection, schedule: Q04DX002 (ip), vehicle: Klucel (hydroxypropylcellulose) (HPC)
[21] = dose: 100.0 mg/kg/injection, schedule: Q04DX003 (ip), vehicle: saline
[22] = dose: 200.0 mg/kg/injection, schedule: Q04DX003 (ip), vehicle: saline
[23] = dose: 100.0 mg/kg/injection, schedule: Q01DX009 (ip), vehicle: saline with Tween-80
[24] = dose: 200.0 mg/kg/injection, schedule: Q01DX009 (ip), vehicle: saline with Tween-80
[25] = dose: 400.0 mg/kg/injection, schedule: Q01DX009 (ip), vehicle: saline with Tween-80
[26] = dose: 100.0 mg/kg/injection, schedule: Q04DX002 (ip), vehicle: saline with Tween-80
[27] = dose: 200.0 mg/kg/injection, schedule: Q04DX002 (ip), vehicle: saline with Tween-80
[28] = dose: 400.0 mg/kg/injection, schedule: Q04DX002 (ip), vehicle: saline with Tween-80

Measured: T/C

NC1CON(C(c2ccccc2)(c2ccccc2)c2ccccc2)C1=O (stereo unspecified)
inactive: [1] 94 % of control | [2] 89 % of control

O=c1cc(/C=N\Nc2ccc([N+](=O)[O-])cc2)[nH]c(=O)[nH]1
inactive: dose: 50.0 mg/kg/injection, schedule: Q01DX001 (ip), vehicle: saline 106 % of control | [3] 95 % of control | [4] 101 % of control | [5] 90 % of control

OC(c1nc2ccc(Cl)cc2[nH]1)C(O)c1nc2ccc(Cl)cc2[nH]1 (stereo unspecified)
inactive: dose: 75.0 mg/kg/injection, schedule: Q01DX001 (ip), vehicle: other 102 % of control | dose: 150.0 mg/kg/injection, schedule: Q01DX001 (ip), vehicle: other 96 % of control | dose: 300.0 mg/kg/injection, schedule: Q01DX001 (ip), vehicle: other 91 % of control

Cc1nc(N)[nH]c(=O)c1CCCNCc1ccccn1
inactive: dose: 25.0 mg/kg/injection, schedule: Q01DX001 (ip), vehicle: saline with Tween-80 101 % of control | dose: 50.0 mg/kg/injection, schedule: Q01DX001 (ip), vehicle: saline with Tween-80 98 % of control | dose: 100.0 mg/kg/injection, schedule: Q01DX001 (ip), vehicle: saline with Tween-80 93 % of control

Cc1cc(C)n(N=C2CCCCC2)c(=O)c1C#N
inactive: [6] 96 % of control | [7] 100 % of control | [8] 105 % of control | [9] 99 % of control | [10] 94 % of control | [11] 89 % of control

BrC1(c2ccccc2)C(c2ccccc2)=C1c1ccccc1
inactive: dose: 50.0 mg/kg/injection, schedule: Q01DX001 (ip), vehicle: carboxymethylcellulose (CMC) 94 % of control | [1] 94 % of control | [2] 96 % of control

O=c1[nH]c(Nc2ccccc2)c(-c2ccccc2)c(=O)[nH]1
inactive: dose: 47.5 mg/kg/injection, schedule: Q01DX001 (ip), vehicle: gum acacia 98 % of control | dose: 95.0 mg/kg/injection, schedule: Q01DX001 (ip), vehicle: gum acacia 88 % of control | dose: 190.0 mg/kg/injection, schedule: Q01DX001 (ip), vehicle: gum acacia 114 % of control

CCC(OC(=O)Nc1ccc(S(=O)(=O)NC2CCCCC2)cc1)c1ccco1 (stereo unspecified)
inactive: [3] 94 % of control | [4] 88 % of control | [5] 91 % of control

CC(=O)C(CCS(C)(=O)=O)c1ccccc1 (stereo unspecified)
inactive: [7] 103 % of control | [9] 97 % of control | [11] 105 % of control

c1ccc(-c2ccc(-c3ccccc3)c(-c3ccc4c(c3)CCC4)c2-c2ccccc2)cc1
inactive: [12] 96 % of control | [13] 96 % of control | [14] 89 % of control

COC(=O)c1cc([N+](=O)[O-])c(Cl)c([N+](=O)[O-])c1
inactive: dose: 12.5 mg/kg/injection, schedule: Q01DX009 (ip), vehicle: Klucel (hydroxypropylcellulose) (HPC) 98 % of control | dose: 25.0 mg/kg/injection, schedule: Q01DX009 (ip), vehicle: Klucel (hydroxypropylcellulose) (HPC) 87 % of control | [7] 89 % of control

O=Nc1ccc(O)c(=O)cc1
inactive: dose: 1.0 mg/kg/injection, schedule: Q01DX009 (ip), vehicle: saline 90 % of control | dose: 1.0 mg/kg/injection, schedule: Q04DX003 (ip), vehicle: saline 100 % of control | dose: 2.0 mg/kg/injection, schedule: Q01DX009 (ip), vehicle: saline 90 % of control | dose: 2.0 mg/kg/injection, schedule: Q04DX003 (ip), vehicle: saline 97 % of control | dose: 4.0 mg/kg/injection, schedule: Q01DX009 (ip), vehicle: saline 97 % of control | dose: 4.0 mg/kg/injection, schedule: Q04DX003 (ip), vehicle: saline 109 % of control

Cc1ccc(NC(=O)Nc2ccccc2Cl)cc1Cl
inactive: [15] 100 % of control | [7] 112 % of control | [16] 98 % of control | [9] 96 % of control | [17] 100 % of control | [11] 94 % of control

CC(C)CNC(=O)Nc1ccc(Cl)c(Cl)c1
inactive: [3] 97 % of control | [4] 95 % of control | [5] 95 % of control

CCc1nc(N)ncc1-c1ccc([N+](=O)[O-])cc1O
inactive: [18] 97 % of control | [19] 100 % of control | [20] 90 % of control

CCC(=O)N1CCOCC1
inactive: [21] 102 % of control | [22] 105 % of control | dose: 400.0 mg/kg/injection, schedule: Q04DX003 (ip), vehicle: saline 98 % of control

CC1CN(Cc2ccc([N+](=O)[O-])cc2)CC(C)N1N (stereo unspecified)
inactive: dose: 50.0 mg/kg/injection, schedule: Q01DX005 (ip), vehicle: saline with Tween-80 98 % of control | dose: 100.0 mg/kg/injection, schedule: Q01DX005 (ip), vehicle: saline with Tween-80 103 % of control

O=C(NCCCl)NC1c2ccccc2-c2ccccc21
inactive: [15] 105 % of control | [7] 96 % of control and 89 % of control | [16] 92 % of control | [9] 102 % of control | [17] 106 % of control | [11] 98 % of control and 86 % of control

CC(C)(c1ccc(OCCO)cc1)c1ccc(OCCO)cc1
inactive: [23] 97 % of control | [24] 98 % of control | [25] 93 % of control

CCc1cc2c(cc1C(=O)/C=C\c1ccco1)C(C)(C)CCC2(C)C
inactive: [23] 103 % of control | [26] 96 % of control | [24] 95 % of control | [27] 93 % of control | [25] 106 % of control | [28] 93 % of control

CCCCCC[N+](C)(C)CCOC(=O)C1C2CC3OC(=O)C1C3C2 (stereo unspecified)
inactive: [21] 97 % of control

COC(=O)C1C=CCC=C1OC (stereo unspecified)
inactive: [12] 96 % of control | [13] 105 % of control | [14] 91 % of control

O=C(Nc1ccccc1C(=O)N/N=C/c1c(O)ccc2ccccc12)c1ccccc1Cl
inactive: [6] 95 % of control | [15] 99 % of control and 103 % of control | [18] 95 % of control and 104 % of control | [7] 100 % of control | [8] 93 % of control | [16] 101 % of control and 102 % of control | [19] 103 % of control | [9] 96 % of control | [10] 95 % of control | [17] 94 % of control and 95 % of control | [20] 93 % of control and 92 % of control | [11] 96 % of control

Cc1ccc(N=Cc2ccccc2)cc1
inactive: [15] 104 % of control | [7] 95 % of control | [16] 107 % of control | [9] 101 % of control | [17] 104 % of control | [11] 101 % of control

O=c1oc(-c2ccccc2)n[n+]([O-])c1-c1ccccc1
inactive: dose: 50.0 mg/kg/injection, schedule: Q01DX009 (ip), vehicle: Klucel (hydroxypropylcellulose) (HPC) 98 % of control | [15] 98 % of control

O=C1CC2CCCCN2C2=C1CCCC2 (stereo unspecified)
inactive: dose: 25.0 mg/kg/injection, schedule: Q01DX009 (ip), vehicle: alcohol 101 % of control | dose: 50.0 mg/kg/injection, schedule: Q01DX009 (ip), vehicle: alcohol 98 % of control | dose: 100.0 mg/kg/injection, schedule: Q01DX009 (ip), vehicle: alcohol 93 % of control

O=C1CCC(C(=O)O)N1 (stereo unspecified)
inactive: dose: 50.0 mg/kg/injection, schedule: Q01DX009 (ip), vehicle: saline with Tween-80 94 % of control | [23] 94 % of control | [12] 97 % of control | [24] 86 % of control | [13] 91 % of control

CCOC(=O)CNc1cccc(C)c1C
inactive: [18] 100 % of control | [19] 102 % of control | [20] 100 % of control

CC(=O)N(c1ccccn1)c1ccccn1
inactive: [3] 106 % of control | [21] 97 % of control | [4] 104 % of control | [22] 105 % of control

COc1cccc(C2NC(=O)CCC2[N+](=O)[O-])c1OC (stereo unspecified)
inactive: [26] 105 % of control | [27] 102 % of control | [28] 94 % of control
